Our source for the bioavailability and AUC values is ChEMBL document CHEMBL4000251, “Discovery of 4-chloro-2-(2,4-dichloro-6-methylphenoxy)-1-methyl-7-(pentan-3-yl)-1H-benzimidazole, a novel CRF1 receptor antagonist” (Bioorg Med Chem, 2017).

Data set [1] can be described thus: Oral bioavailability in rat at 1 mg/kg. It is filed as ADME, organism-based. To be noted: in vivo.
Data set [2] is described as follows: AUC in rat at 1 mg/kg, po. It is filed as ADME, organism-based. To be noted: in vivo.

`CCC(CC)c1ccc(Cl)c2nc(Oc3c(C)cc(Cl)cc3Cl)n(C)c12`: in data set [1], the bioavailability worked out at 30.8%. The AUC in data set [2] was determined as 94.6 ng·h/mL.
